Each structure is given as a SMILES string. In brackets after ≈: the same amount, converted by molar mass.

In data set [1] the target is Indoleamine 2,3-dioxygenase 1 (Homo sapiens, UniProt P14902). As to the kind of experiment: Inhibition of IDO1 in human HeLa cells using L-tryptophan as substrate incubated for 48 hrs. Type of data set: cell-based.
Data set [2] addresses T1, Indoleamine 2,3-dioxygenase 2 (Homo sapiens, UniProt Q6ZQW0).
T1 sequence (Q6ZQW0 whole entry): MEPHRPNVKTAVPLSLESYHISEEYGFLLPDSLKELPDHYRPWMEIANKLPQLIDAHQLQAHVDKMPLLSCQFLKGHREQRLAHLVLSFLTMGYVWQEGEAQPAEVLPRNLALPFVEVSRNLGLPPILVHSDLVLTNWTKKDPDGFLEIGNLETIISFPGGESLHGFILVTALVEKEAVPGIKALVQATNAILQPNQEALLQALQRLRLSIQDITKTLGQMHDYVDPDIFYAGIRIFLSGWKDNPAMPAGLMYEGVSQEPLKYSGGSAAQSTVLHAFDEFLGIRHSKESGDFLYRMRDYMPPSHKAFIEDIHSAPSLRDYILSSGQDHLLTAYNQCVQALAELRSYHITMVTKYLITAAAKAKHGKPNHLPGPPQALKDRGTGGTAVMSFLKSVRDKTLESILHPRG
As to the kind of experiment: Inhibition of N-terminal His-tagged human IDO2 expressed in Escherichia coli expression system.

The target in data set [3] is Tryptophan 2,3-dioxygenase (Homo sapiens, UniProt P48775). As to the kind of experiment: Inhibition of N-terminal His-tagged human TDO expressed in Escherichia coli expression system.
The nature of data set [4]: Toxicity in C57BL6 mouse allografted with Lewis cells assessed as increase in body weight at 60 mg/kg, ig measured every 3 days for 30 days. Format: organism-based. Conditions: in vivo, po, 720 h.
Data set [5] can be described thus: Apparent permeability across apical to basolateral side in human Caco2 cells upto 90 mins by LC-MS/MS analysis. Conditions: Caco-2. Format: ADME, cell-based.
In data set [6] the test system is Lewis lung carcinoma cell line. The data set can be described thus: Antimetastatic activity against LLC cells allografted in C57BL6 mouse assessed as number of metastatic nodules in lung at 60 mg/kg, ig after 30 days by H and E staining based analysis. Type of data set: functional.
In data set [7] the test system is Lewis lung carcinoma cell line. As to the kind of experiment: Antimetastatic activity against LLC cells allografted in C57BL6 mouse assessed as inhibition of metastatic nodules in lung at 60 mg/kg, ig after 30 days by H and E staining based analysis relative to control. The note with it: po, 720 h. Type of data set: functional.
Data set [8] is described as follows: Aqueous solubility of compound at 1 mg after 30 hrs by HPLC analysis. Type of data set: physicochemical.

Sequence of Indoleamine 2,3-dioxygenase 1 (P14902 whole entry): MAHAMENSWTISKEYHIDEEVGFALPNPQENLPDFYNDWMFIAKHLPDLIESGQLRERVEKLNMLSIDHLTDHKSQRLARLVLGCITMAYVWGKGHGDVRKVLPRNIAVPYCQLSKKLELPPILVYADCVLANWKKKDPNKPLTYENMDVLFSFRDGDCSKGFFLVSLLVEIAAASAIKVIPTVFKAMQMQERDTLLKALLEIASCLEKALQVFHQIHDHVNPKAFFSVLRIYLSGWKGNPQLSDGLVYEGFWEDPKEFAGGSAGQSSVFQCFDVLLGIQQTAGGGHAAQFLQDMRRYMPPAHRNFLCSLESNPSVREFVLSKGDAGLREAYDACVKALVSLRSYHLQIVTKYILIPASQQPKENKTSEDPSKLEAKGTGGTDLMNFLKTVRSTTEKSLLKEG
Sequence of Tryptophan 2,3-dioxygenase (P48775 whole entry): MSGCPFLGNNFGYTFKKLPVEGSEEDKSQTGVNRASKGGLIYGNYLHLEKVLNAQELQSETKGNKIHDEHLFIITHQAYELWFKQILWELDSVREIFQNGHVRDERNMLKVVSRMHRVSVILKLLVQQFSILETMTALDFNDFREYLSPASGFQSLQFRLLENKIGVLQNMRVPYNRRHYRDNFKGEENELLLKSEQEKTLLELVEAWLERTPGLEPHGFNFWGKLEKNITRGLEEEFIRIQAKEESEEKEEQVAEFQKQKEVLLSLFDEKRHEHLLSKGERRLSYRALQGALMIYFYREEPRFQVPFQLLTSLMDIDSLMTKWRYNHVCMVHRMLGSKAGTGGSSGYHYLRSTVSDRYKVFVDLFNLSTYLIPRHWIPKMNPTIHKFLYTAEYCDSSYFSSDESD

In turn, `CCOP(=O)(Cc1cccc2ccccc12)NCCNc1nonc1/C(=N/O)Nc1ccc(F)c(Br)c1` (stereo not given) registered a half-inhibitory concentration (IC50) in data set [1] of 126 nM.

Take `CCOP(=O)(NCCNc1nonc1/C(=N/O)Nc1ccc(F)c(Br)c1)c1ccccc1` (stereo not given): the IC50 in data set [1] was 132 nM.

For the molecule `CCOP(=O)(Cc1ccccc1)NCCNc1nonc1/C(=N/O)Nc1ccc(F)c(Br)c1` (stereo not given), the IC50 in data set [1] is 119 nM.

As for `NS(=O)(=O)NCCNc1nonc1C(=NO)Nc1ccc(F)c(Br)c1` [EPACADOSTAT], the IC50 is 710 nM in data set [2] and over 10000 nM in data set [3]. Further, the Activity result is reported as “Toxic” in data set [4] and 21 in data set [6]. Further, the Papp A→B at 1.5 h in data set [5] was 3.1 ×10⁻⁶ cm/s. In data set [7], the inhibition in vivo at 60 mg/kg stood at 77%. The molecule further registered a solubility at 30 h in data set [8] of 130 µg/mL (≈ 297 µM).
